This assay relates to ras p21 protein. Put plainly: Ras p21 Nucleotide Exchange Assay (inhibition of ^3H-GDP binding to p21 ras). As to conditions: for ras p21 Assay (per cent inhibition): table 2, 100 μM. It counts as biochemical. As to the method:
Ras p21 Nucleotide Exchange Assay
The conditions for assay of nucleotide exchange inhibitors was adapted from Hall, A. and A. J. Self. 1986 J. Biol. Chem. 261: 10963-10965, which is hereby incorporated by reference.
0.5 μM ras p21 protein was incubated in 50 μls exhange buffer (50 mM Tris-HCl pH 7.5, 5 mM MgCl2, 50 mM NaCl and […]) on ice. Compounds dissolved in dimethyl sulfoxide (DMSO) were added to the desired concentration such that the final concentration of DMSO in the reaction mixture was 2% by weight. The reaction was incubated for 5 minutes on ice and then ^3 H-GDP (final concentration was 0.25 μM) was added.
Biological data are given throughout the specification in one of two forms: either as per cent inhibitions, or as the concentration at which the test compound causes 50% inhibition (IC50) of the binding of ^3 H-GDP to the p21 ras protein.
When the above assay was run at one concentration of the test compound, then the data was given as per cent inhibition at a particular concentration. […] When the assay was run at a series of concentrations, then the data were given as IC50 's.

The text below walks through data of US5595998A, “Pyrazoloquinolines” (priority 1994, dated 1997).

As for `COc1ccc2nc3c(c(C)nn3[C@@H]3O[C@H](COC(C)=O)[C@@H](OC(C)=O)[C@H]3OC(C)=O)c(Cl)c2c1` [OCOCH3 O(CO)CH3 O(CO)CH3], the “ras p21 Assay (per cent inhibition)” value came out at 3%.

A word on the IC50: it is the concentration needed to halve the response being measured. With `COc1ccc2nc3nn([C@@H]4O[C@H](COC(=O)c5ccccc5)[C@@H](OC(=O)c5ccccc5)[C@H]4OC(=O)c4ccccc4)c(C)c3c(O)c2c1` [OH O(CO)Ph O(CO)Ph O(CO)Ph], the IC50 (table 1, concentration causing 50% inhibition of ^3H-GDP binding, read-out: Ras p21 Assay (IC50)) worked out at 10 µM.

Regarding `COc1ccc2nc3c(c(C)nn3[C@@H]3O[C@H](CO)[C@H]4OC(C)(C)O[C@H]43)c(Cl)c2c1` [OH OC(CH3)2 O], the “ras p21 Assay (per cent inhibition)” value is on record as 11%.

With `COc1ccc2nc3nn([C@@H]4O[C@H](CO)[C@@H](O)[C@H]4O)c(C)c3c(O)c2c1` [OH OH OH OH], under “table 1, at (100), unit not given”, the “Ras p21 Assay (per cent inhibition)” value is listed as 49%.
